From ChEMBL document CHEMBL1134709 (Bioorg Med Chem Lett, 2001)

biological target: T1, Protein Tat (Human immunodeficiency virus type 1 group M subtype B (isolate PCV12)(HIV-1), UniProt P04326); test: Inhibition of Tat peptide binding to HIV-1 TAR RNA; set-up: species or system Human immunodeficiency virus type 1 (CLONE 12)
T1 sequence (P04326 whole entry): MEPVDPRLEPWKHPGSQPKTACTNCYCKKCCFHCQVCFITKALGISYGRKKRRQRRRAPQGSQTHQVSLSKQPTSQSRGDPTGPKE

Compound	IC50 [nM]
NC[C@H]1OC(O[C@H]2[C@H](O)C(O)[C@H](N)C[C@@H]2N)C(N)[C@@H](O)[C@@H]1O (single isomer, unassigned) [NEAMINE]	28000
N=C(N)NCCCC(N)C(=O)NCC1O[C@@H](OC2C(N)C[C@@H](N)[C@@H](O)[C@H]2O)[C@@H](N)[C@@H](O)C1O (some centres undefined)	600
N=C(N)NCCCC(NC(=O)c1ccc2ccc3cccc4ccc1c2c34)C(=O)NCC1OC(OC2C(N)CC(N)C(O)C2O)C(N)C(O)C1O (centres undefined)	28
NC1C[C@@H](N)[C@@H](O)[C@@H](O)C1O[C@@H]1OC(CNC(=O)c2ccc3ccc4cccc5ccc2c3c45)C(O)[C@H](O)[C@@H]1N (some centres undefined)	1700
